# From patent US20050037946A1, “Methods and compositions for treating cardiovascular disease using 1722, 10280, 59917, 85553, 10653, 9235, 21668, 17794, 2210, 6169, 10102, 21061, 17662, 1468, 12282, 6350, 9035, 1820, 23652, 7301, 8925, 8701, 3533, 9462, 9123, 12788, 17729, 65552, 1261, 21476, 33770, 9380, 2569654, 33556, 53656, …” (Millennium Pharmaceuticals, Inc., priority 2003, published 2005)
# Legend:
# 53656 mRNA = 53656 mRNA in livers of Marmosets (TaqMan); assay type: in vivo
# 8921 mRNA = 8921 mRNA expression in marmosets; assay type: in vivo
# 6169 mRNA [1] = experiment: 6169 mRNA in Marmoset livers (TaqMan); assay type: in vivo
# From the text: (§1) This example describes the TaqMan™ procedure. The Taqman™ procedure is a quantitative, reverse transcription PCR-based approach for detecting mRNA. The RT-PCR reaction exploits the 5′ nuclease activity of AmpliTaq Gold™ DNA Polymerase to cleave a TaqMan™ probe during PCR. Briefly, cDNA was generated from the samples of interest, e.g., heart, kidney, liver, skeletal muscle, and various vessels, and used as the starting material for PCR amplification. In addition to the 5′ and 3′ gene-specific primers, a gene-specific oligonucleotide probe (complementary to the region being amplified) was included in the reaction (i.e., the Taqman™ probe). […]
# (§2) During the PCR reaction, cleavage of the probe separates the reporter dye and the quencher dye, resulting in increased fluorescence of the reporter. Accumulation of PCR products is detected directly by monitoring the increase in fluorescence of the reporter dye. When the probe is intact, the proximity of the reporter dye to the quencher dye results in suppression of the reporter fluorescence. […]
# 112091 = 112091 expression in livers of African Green Monkeys, cholesterol; assay type: in vivo
# 9235 mRNA = 9235 mRNA in livers of African Green Monkeys, cholesterol (TaqMan); assay type: in vivo; conditions: p=0.09
# From the text: as §1, §2
# 10653 mRNA [2] = experiment: 10653 mRNA in liver of ApoE knockout mice, cholesterol feeding (TaqMan); assay type: in vivo; conditions: two and six months of cholesterol feeding of ApoE knockout mice
# From the text: as §1, §2
# 19319 mRNA = 19319 mRNA in ApoE knock-out mice, cholesterol (TaqMan); assay type: in vivo
# From the text: as §1, §2
# 54946 mRNA = 54946 mRNA in livers of Apo E knock out mice, cholesterol (microarray or RT-PCR); assay type: in vivo; conditions: livers of Apo E knock out mice relative to wild-type controls, p=0.001
# 2569654 mRNA [3] = experiment: 2569654 mRNA in livers of ApoE knock out mice with cholesterol feeding (TaqMan); assay type: in vivo; conditions: livers of ApoE knock out (KO) mice with cholesterol feeding
# From the text: as §1, §2
# 17729 mRNA = 17729 mRNA in ApoE knockout mouse models, cholesterol feeding (TaqMan); assay type: in vivo
# From the text: as §1, §2
# 9325 mRNA = 9325 mRNA in liver of ApoE knockout mice, cholesterol feeding (TaqMan); assay type: in vivo; conditions: two and six months of cholesterol feeding of ApoE knockout mice
# From the text: as §1, §2
# 10653 mRNA [4] = experiment: 10653 mRNA in livers of African Green Monkeys, cholesterol (TaqMan); assay type: in vivo; conditions: p=0.05
# From the text: as §1, §2
# 554 mRNA = 554 mRNA in livers of African Green Monkeys, cholesterol; assay type: in vivo
# 6169 mRNA [5] = experiment: 6169 mRNA in liver of African Green Monkeys, lipid feeding (TaqMan); assay type: in vivo; conditions: feeding / in the diet
# 43969 = 43969 expression in livers of ApoE knock-out mice administered cholesterol (TaqMan); assay type: in vivo
# From the text: as §1, §2
# isolated rat arterioles = conditions: compared to basal tone; cited from earlier work
# 9123 mRNA = 9123 mRNA in livers of marmosets treated with lipid-lowering therapies (TaqMan); assay type: in vivo
# From the text: as §1, §2
# 8701 mRNA = 8701 mRNA in livers of marmosets treated with lipid-lowering therapies (TaqMan); assay type: in vivo
# 10653 mRNA [6] = experiment: 10653 mRNA in livers of marmosets treated with lipid-lowering therapies (TaqMan); assay type: in vivo
# 10102 mRNA = 10102 mRNA regulation by lipid lowering drugs (TaqMan)
# 7301 mRNA = 7301 mRNA in livers of marmosets treated with lipid-lowering therapies (TaqMan); assay type: in vivo
# From the text: as §1, §2
# 9462 mRNA = 9462 mRNA regulation by lipid lowering drugs (TaqMan)
# From the text: as §1, §2
# 2569654 mRNA [7] = experiment: 2569654 mRNA in marmoset models (TaqMan); assay type: in vivo
# From the text: (§3) This example describes the TaqMan™ procedure. The Taqman™ procedure is a quantitative, reverse transcription PCR-based approach for detecting mRNA. The RT-PCR reaction exploits the 5′ nuclease activity of AmpliTaq Gold™ DNA Polymerase to cleave a TaqMan™ probe during PCR. Briefly, cDNA was generated from the samples of interest, e.g., heart, kidney, liver, skeletal muscle, and various vessels, and used as the starting material for PCR amplification. In addition to the 5′ and 3′ gene-specific primers, a gene-specific oligonucleotide probe (complementary to the region being amplified) was included in the reaction (i.e., the Taqman™ probe). The TaqMan™ probe includes the oligonucleotide with a fluorescent reporter dye covalently linked to the 5′ end of the probe (such as FAM (6-carboxyfluorescein), TET (6-carboxy4,7,2′,7′-tetrachlorofluorescein), JOE (6-carboxy-4,5-dichloro-2,7-dimethoxyfluorescein), or VIC) and a quencher dye (TAMRA (6-carboxy-N,N,N′,N′-tetramethylrhodamine) at the 3′ end of the probe.
# (§4) During the PCR reaction, cleavage of the probe separates the reporter dye and the quencher dye, resulting in increased fluorescence of the reporter. Accumulation of PCR products is detected directly by monitoring the increase in fluorescence of the reporter dye. When the probe is intact, the proximity of the reporter dye to the quencher dye results in suppression of the reporter fluorescence. During PCR, if the target of interest is present, the probe specifically anneals between the forward and reverse primer sites. The 5′-3′ nucleolytic activity of the AmpliTaq™ Gold DNA Polymerase cleaves the probe between the reporter and the quencher only if the probe hybridizes to the target. The probe fragments are then displaced from the target, and polymerization of the strand continues. The 3′ end of the probe is blocked to prevent extension of the probe during PCR. […] RNA was prepared using the trizol method and treated with DNase to remove contaminating genomic DNA. cDNA was synthesized using standard techniques.
# 3533 mRNA = 3533 mRNA regulation by lipid lowering drugs (TaqMan)
# From the text: as §3, §4
# coronary arteries = conditions: disruption of microtubules; cited from earlier work
# 9380 mRNA = 9380 mRNA in livers of marmosets (TaqMan); assay type: in vivo
# 2552 mRNA = 2552 mRNA in marmoset livers (TaqMan); assay type: in vivo
# 1261 mRNA = 1261 mRNA in statically cultured or shear-stressed cells (TaqMan); assay type: cell-based
# From the text: as §3, §4
# isolated hepatocytes = conditions: via the CCK-B receptor; cited from earlier work
# [8] = test system: serine/threonine kinase Akt; conditions: primary human peripheral blood monocytes; cited from earlier work
# 33556 mRNA = 33556 mRNA in cultured human macrophages (TaqMan); assay type: cell-based; conditions: 18h of stimulation
# From the text: as §1, §2
# 261 mRNA = 261 mRNA in cultured human monocytes and macrophages (TaqMan); assay type: cell-based
# From the text: as §1, §2
# 12282 mRNA = 12282 mRNA in cultured human monocytes and macrophages (TaqMan); assay type: cell-based; conditions: 18 hours of stimulation
# From the text: as §1, §2
# Syk = experiment: 1673 (Syk) expression in monocytes and macrophages (TaqMan); assay type: cell-based; conditions: monocytes or macrophages
# From the text: as §1, §2
# 9035 mRNA = 9035 mRNA in cultured human monocytes and macrophages (TaqMan); assay type: cell-based; conditions: 18 hours of stimulation
# From the text: as §1, §2
compound,measurement,setting,value
COCc1c(C(C)C)nc(C(C)C)c(/C=C/[C@@H](O)C[C@@H](O)CC(=O)O)c1-c1ccc(F)cc1 [cerivastatin],53656 mRNA upregulated,53656 mRNA,1.4 fold
same,increase in 8921 mRNA expression,8921 mRNA,1.4 fold
same,6169 mRNA upregulated,6169 mRNA [1],2.4 fold
CC(C)CCC[C@@H](C)[C@H]1CC[C@H]2[C@@H]3CC=C4C[C@@H](O)CC[C@]4(C)[C@H]3CC[C@]12C [cholesterol],112091 expression,112091,down-regulated
same,9235 mRNA downregulated,9235 mRNA,1.3 fold
same,10653 mRNA downregulated,10653 mRNA [2],1.3 fold
same,19319 mRNA expression,19319 mRNA,downregulated
same,54946 mRNA downregulated,54946 mRNA,0.62 fold
same,2569654 mRNA expression,2569654 mRNA [3],significantly downregulated
same,17729 mRNA expression,17729 mRNA,downregulated
same,9325 mRNA downregulated,9325 mRNA,1.8 fold
same,10653 mRNA downregulated,10653 mRNA [4],1.5 fold
same,554 mRNA expression,554 mRNA,down-regulated
same,6169 mRNA downregulated,6169 mRNA [5],1.3 fold
same,43969 expression,43969,downregulated
CN[C@H]1CCc2cc(OC)c(OC)c(OC)c2-c2ccc(OC)c(=O)cc21 [demecolcine],vasoconstriction,isolated rat arterioles,32.7%
Cc1ccc(C)c(OCCCC(C)(C)C(=O)O)c1 [gemfibrozil],9123 mRNA expression,9123 mRNA,upregulated
same,8701 mRNA expression,8701 mRNA,upregulated
same,10653 mRNA expression,10653 mRNA [6],downregualted
same,10102 mRNA expression,10102 mRNA,significantly upregulated
same,7301 mRNA expression,7301 mRNA,down-reregulated
O=C(O)c1cccnc1 [niacin],10102 mRNA expression,10102 mRNA,significantly upregulated
same,9462 mRNA expression,9462 mRNA,upregulated
same,2569654 mRNA expression,2569654 mRNA [7],upregulated
same,3533 mRNA expression,3533 mRNA,significantly downregulated
COC(=O)Nc1nc2ccc(C(=O)c3cccs3)cc2[nH]1 [nocodazole],vascular tension and intracellular calcium levels,coronary arteries,increases
same,vasoconstriction,isolated rat arterioles,29.6%
CC(C)(Sc1cc(C(C)(C)C)c(O)c(C(C)(C)C)c1)Sc1cc(C(C)(C)C)c(O)c(C(C)(C)C)c1 [probucol],9123 mRNA expression,9123 mRNA,upregulated
same,10653 mRNA expression,10653 mRNA [6],downregualted
same,10102 mRNA expression,10102 mRNA,significantly upregulated
same,9380 mRNA expression,9380 mRNA,upregulated
same,7301 mRNA expression,7301 mRNA,down-reregulated
same,2552 mRNA expression,2552 mRNA,upregulated
IL-1β,1261 expression in response to angiogenic/inflammatory stimuli,1261 mRNA,transient upregulation
TNF-α,1261 expression in response to angiogenic/inflammatory stimuli,1261 mRNA,transient upregulation
VEGF,1261 expression in response to angiogenic/inflammatory stimuli,1261 mRNA,transient upregulation
same,"1261 mRNA expression, timecourse","1261 mRNA; 1 hour of treatment, statically cultured or shear-stressed cells",strong upregulation
same,1261 mRNA expression,1261 mRNA; VEGF individually,upregulated
cholesystkinin-8 [CCK-8],reduction of triacylglycerol secretion,isolated hepatocytes,53%
interferon gamma,phosphorylation of the serine/threonine kinase Akt,[8],induces
same,33556 mRNA expression,33556 mRNA,upregulated
same,261 mRNA expression,261 mRNA,downregulated
same,12282 mRNA expression,12282 mRNA,upregulated
same,Syk expression,Syk,No apparent upregulation
same,9035 mRNA expression,9035 mRNA,upregulated
